Paper PMC4965013, “Open Source Drug Discovery with the Malaria Box Compound Collection for Neglected Diseases and Beyond” (PLoS Pathogens, 2016)
pEC50, pIC50: −log10 of the molar value. Read-outs that look alike come from different tables or passages of the source.

Key:
[1] = system: P. falciparum NF54 late-stage gametocytes; settings: ref [61]; cited from earlier work
P. falciparum 3D7 = assay: [3H]-hypoxanthine growth inhibition, modified HCO3- or O2; type: cell-based; settings: for pIC50: Plasmodium falciparum
[2] = system: Naegleria fowleri trophozoites; assay: Naegleria fowleri CellTiter-Glo; type: cell-based; settings: Naegleria fowleri
Text: Columns CY-CZ: Kyle group (data presented first in this paper). Naegleria fowleri trophozoite growth inhibition. Methods: The CellTiter-Glo (CTG) 2.0 luminescent assay is a quantitative assay that assesses the presence of cellular ATP in lysed cells, displaying an output in Relative Light Units (RLU’s). This was previously standardised, for the growth and development of Naegleria fowleri trophozoites in-vitro to assess drug susceptibility on this parasite. […] These included two drug-like molecules MMV665807 (St. Jude’s Children’s Hospital) and MMV665979 (The Genomics Institute of the Novartis Research Foundation - GNF) and two Probe-like molecules, MMV006203 (GNF) & MMV006172 (GNF; GlaxoSmithKline - GSK). […] However, these Malaria Box compounds were all toxic to zebrafish and mammalian cells.

[3] = system: P. falciparum 3D7 trophozoites; assay: Metabolomic fingerprint profiling LC-MS; type: cell-based, Plasmodium falciparum; parameters: UDP-D-glucose / ADP-D-glucose: unit not given here
P. falciparum = assay: EC50 listed in S2 Table Metabolomics (used to set the concentration tested); type: cell-based; settings: Plasmodium falciparum; EC50 used for Factor_XEC50 in metabolomics; read-out: EC50_nM
[4] = metabolite level change after treatment

For `CCN(CC)CCn1c(=N)n(CC(O)c2ccc(Cl)c(Cl)c2)c2ccccc21` (stereo not shown) [MMV000248], the pIC50 [1] is given as greater than 6.46.
In the case of `Cc1cc(NCCN2CCCCC2)c2ccc3ccccc3c2n1` [MMV006203], the “fold change (IC50normal/ IC50hypoxia)” value (P. falciparum 3D7) was 3.7, the pIC50 (P. falciparum 3D7; 3D7, read-out: P. falciparum 3D7 IC50 1% O2, 1% O2 hypoxia) was 6.88 and the pIC50 (P. falciparum 3D7; 3D7, read-out: P. falciparum 3D7 IC50 5% O2) was 6.31. For the same compound, the pEC50 [2] was 6.38, the Acetyllysine ([3]; S2 Table Metabolomics, metabolite Acetyllysine) was 0.08786 and the N-acetyl-L-ornithine ([3]; S2 Table Metabolomics, metabolite N-acetyl-L-ornithine) was 0.002896. The N-carbamoyl-L-aspartate ([3]; S2 Table Metabolomics, metabolite N-carbamoyl-L-aspartate) was 0.4112, the NADPH ([3]; S2 Table Metabolomics, metabolite NADPH) was 0.03038 and the dAMP ([3]; S2 Table Metabolomics, metabolite dAMP) was 0.7397. The dCMP ([3]; S2 Table Metabolomics, metabolite dCMP) was 0.2991, the dTDP ([3]; S2 Table Metabolomics, metabolite dTDP) was 0.8216 and the dTMP ([3]; S2 Table Metabolomics, metabolite dTMP) was 0.8444. For the same compound, the dTTP ([3]; S2 Table Metabolomics, metabolite dTTP) was 0.2113, the dihydroorotate ([3]; S2 Table Metabolomics, metabolite dihydroorotate) was 0.4914 and the orotate ([3]; S2 Table Metabolomics, metabolite orotate) was 0.1057. The DLH ([3]; S2 Table Metabolomics, peptide DLH) was -0.3111, the DLS/SDL/SID ([3]; S2 Table Metabolomics, peptide DLS/SDL/SID) was -0.5497 and the PD ([3]; S2 Table Metabolomics, peptide PD) was -0.2642. It also gave a PEE ([3]; S2 Table Metabolomics, peptide PEE) of -0.1431, a PVNF ([3]; S2 Table Metabolomics, peptide PVNF) of -0.3001 and a 3-phosphoglycerate ([3]; metabolite 3-phosphoglycerate, S2 Table Metabolomics) of -0.2573. It also gave an ADP-D-glucose ([3]; metabolite ADP-D-glucose, S2 Table Metabolomics) of 0.2156, an ATP ([3]; metabolite ATP, S2 Table Metabolomics) of -0.6838 and a CDP ([3]; metabolite CDP, S2 Table Metabolomics, change in metabolite level after compound treatment) of 0.8402. For the same compound, the D-sedoheptulose-1/7-phosphate ([3]; metabolite D-sedoheptulose-1/7-phosphate, S2 Table Metabolomics, change in metabolite level after compound treatment) was 0.9147, the FAD ([3]; metabolite FAD, S2 Table Metabolomics) was 0.06173 and the GMP ([3]; metabolite GMP, S2 Table Metabolomics, change in metabolite level after compound treatment) was -0.5622. The “NAD+” value ([3]; metabolite NAD+, S2 Table Metabolomics) was -0.01124, the “NADP+” value ([3]; metabolite NADP+, S2 Table Metabolomics) was 0.01586 and the “Octoluse Bisphosphate” value ([3]; metabolite Octoluse Bisphosphate, S2 Table Metabolomics, change in metabolite level after compound treatment) was -0.09172. For the same compound, the Pyroglutamic acid ([3]; metabolite Pyroglutamic acid, S2 Table Metabolomics) was -0.7767, the UDP-D-glucose ([3]; metabolite UDP-D-glucose, S2 Table Metabolomics) was 0.04255 and the UDP-D-glucuronate ([3]; metabolite UDP-D-glucuronate, S2 Table Metabolomics) was -0.09689. The UDP-N-acetyl-glucosamine ([3]; metabolite UDP-N-acetyl-glucosamine, S2 Table Metabolomics) was 0.1138, the UDP ([3]; metabolite UDP, S2 Table Metabolomics, change in metabolite level after compound treatment) was 0.8936 and the UMP ([3]; metabolite UMP, S2 Table Metabolomics, change in metabolite level after compound treatment) was -0.4956. For the same compound, the UTP ([3]; metabolite UTP, S2 Table Metabolomics, change in metabolite level after compound treatment) was -0.4083, the a-ketoglutarate ([3]; metabolite a-ketoglutarate, S2 Table Metabolomics) was -0.4253 and the citrate/isocitrate ([3]; metabolite citrate/isocitrate, S2 Table Metabolomics, change in metabolite level after compound treatment) was -0.3127. The cytidine ([3]; metabolite cytidine, S2 Table Metabolomics) was -0.1848, the dATP ([3]; metabolite dATP, S2 Table Metabolomics) was -0.6172 and the dGMP/AMP ([3]; metabolite dGMP/AMP, S2 Table Metabolomics, change in metabolite level after compound treatment) was 0.6443. For the same compound, the fumarate ([3]; metabolite fumarate, S2 Table Metabolomics, change in metabolite level after compound treatment) was -0.3628, the glucose-1/6-phosphate ([3]; metabolite glucose-1/6-phosphate, S2 Table Metabolomics, change in metabolite level after compound treatment) was 0.2347 and the glycerate ([3]; metabolite glycerate, S2 Table Metabolomics, change in metabolite level after compound treatment) was -0.4315. It also gave a guanine ([3]; metabolite guanine, S2 Table Metabolomics, change in metabolite level after compound treatment) of 0.07764, a guanosine ([3]; metabolite guanosine, S2 Table Metabolomics, change in metabolite level after compound treatment) of -0.09005 and a hypoxanthine ([3]; metabolite hypoxanthine, S2 Table Metabolomics) of -0.3483. It also gave an indole ([3]; metabolite indole, S2 Table Metabolomics) of -0.1837, an inosine ([3]; metabolite inosine, S2 Table Metabolomics, change in metabolite level after compound treatment) of -0.08456 and a 2_3-Diphosphoglyceric acid [3, 4] of 0.4386. It also gave a 4-phosphopantothenate [3, 4] of 0.2283, a 6-phospho-D-gluconate [3, 4] of 0.1112 and an FMN [3, 4] of 0.1526. For the same compound, the IMP [3, 4] was 0.332, the Pyrophosphate [3, 4] was 0.424 and the Sedoheptoluse bisphosphate [3, 4] was -0.2408. It also gave a cyclic-AMP [3, 4] of -0.2974, a glutathione disulfide [3, 4] of 0.042 and a lactate [3, 4] of -0.2642. The myo-inositol [3, 4] was -0.268, the nicotinate ([3]; metabolite nicotinate, S2 Table Metabolomics) was -0.1416 and the ornithine ([3]; metabolite ornithine, S2 Table Metabolomics) was -0.3267. The phosphoenolpyruvate ([3]; metabolite phosphoenolpyruvate, S2 Table Metabolomics) was -0.2017, the pyruvate ([3]; metabolite pyruvate, S2 Table Metabolomics, change in metabolite level after compound treatment) was -0.1834 and the ribose-phosphate ([3]; metabolite ribose-phosphate, S2 Table Metabolomics) was -0.417. The sarcosine/alanine ([3]; metabolite sarcosine/alanine, S2 Table Metabolomics, change in metabolite level after compound treatment) was 0.1849, the sn-glycerol-3-phosphate ([3]; metabolite sn-glycerol-3-phosphate, S2 Table Metabolomics) was -0.1322 and the succinate/methylmalonic acid ([3]; metabolite succinate/methylmalonic acid, S2 Table Metabolomics, change in metabolite level after compound treatment) was -0.1409. It also gave a uridine ([3]; metabolite uridine, S2 Table Metabolomics, change in metabolite level after compound treatment) of -0.04629, a xanthosine ([3]; metabolite xanthosine, S2 Table Metabolomics, change in metabolite level after compound treatment) of -0.705 and a pEC50 (P. falciparum) of 6.52.
